Laboratory results: patent US12527794B2, “Compositions, formulations, and methods for hair treatment” (Oddity Labs, LLC, priority 2021, dated 2026)

Columns and labels:
Format in all cases: cell-based
[1] = tested on: HepG2 cells; assay: Caspase 3/7 activity in HepG2 cells; settings: HepG2, >2-log concentration range
Protocol: (§1) Cells were treated with either the exemplary compounds or vehicle control containing correspondingly % v/v-matched amounts of DMSO spanning a >2-log concentration range. Data represents mean±s.d. and representative of at least 2 experimental replicates.
as §1, with “HepG2 cells are an immortalized liver cell line commonly used to study apoptosis induced by small molecules. Cells” for “Cells”

[2] = tested on: bacteria; assay: SOS chromotest (β-galactosidase activity); settings: varying concentrations; 4-NQ as known genotoxin
Protocol: The SOS chromotest is a well-established bacteria-based test for genotoxicity.
(§2) The safety/toxicology profiles of a compound or salt of the present disclosure was evaluated via a series of in vitro genotoxicity assays, including the SOS-chromotest to determine bacterial genotoxicity, and the TK.6 micronucleus assay to determine chromosomal damage and forward mutations. Standard reactive oxygen species (ROS) and caspase 3/7 assay were conducted to determine general cellular toxicity. Moreover, a series of sensitization tests were conducted to predict any potential skin sensitivity. These include the direct peptide reactivity assay to evaluate haptenization, the KeratinoSens reporter assay to determine potential sensitivity via the activation of a cytoprotective pathway, and an immunological assay using human immature monocyte-derived dendritic cells to evaluate any potential immunogenicity.

[3] = tested on: TK.6 lymphoblasts; assay: TK.6 micronucleus assay
Protocol: as §2
TK.6 lymphoblasts are a well-studied cell line commonly used for gene mutation analyses. They are heterozygous for the thymidine kinase gene (TK) and enable the detection of forward mutations and chromosomal damage, which manifests as micronuclei and are detectable via flow cytometry.
TK.6 cells were dosed with the exemplary compounds or a vehicle control (0.1% v/v DMSO) and cultured with or without S9 metabolic activation for 24 hr. […] Methyl methanesulfonate, a known genotoxic, alkylating agent was used as a positive control for micronuclei detection.
The micronucleus assay was also performed to determine if the compounds are genotoxic by evaluating the presence of micronuclei. […] I-17 elicited genotoxicity at >3.125 μg/mL.

[4] = tested on: human hair follicle dermal papilla cells (hFDPC); assay: Human follicle dermal papilla cell (hFDPC) proliferation, cell viability assay; settings: hFDPCs supplemented with BIO, BMP-2 and FGFβ
Protocol: The ability of a compound or salt of the present disclosure to increase proliferation of human hair follicle dermal papilla cells (hFDPC) was tested using a cell viability assay, such as the Promega CellTiter-Glo® Luminescent Cell Viability Assay, MTT cell proliferation assay (ATCC® 30-1010K) or cell counting. […] In Table 8, A represents less than 20% of increased proliferation of hFDPCs, B represents 20-40%, and C represents larger than 40% of increased proliferation of hFDPCs. For this assay, hFDPCs were cultured on tissue culture-treated plastic and supplemented with 6-bromoindirubin-39-Oxime (BIO), recombinant bone morphogenetic protein-2 (BMP-2), and basic fibroblast growth factor (FGFβ), whose combination was previously found to preserve in situ dermal papilla gene signatures.

[5] = tested on: Nrf2-ARE pathway; assay: KeratinoSens Nrf2-ARE luciferase reporter assay; settings: cinnamic aldehyde as known sensitizing compound
Protocol: The Nrf2-ARE pathway is a master regulator of cytoprotective responses to oxidative stress, and is an early indicator of skin sensitization. Nrf2 (nuclear factor erythroid 2-related factor) is a transcription factor that binds to antioxidant responsive elements (ARE). By fusing ARE to the light-producing luciferase gene, a KeratinoSens Nrf2-ARE reporter assay was performed whereby luciferase signal is directly correlated to Nrf2-ARE pathway activation.
Normalized ARE-luciferase activity was measured using a known sensitizing compound (cinnamic aldehyde) and exemplary compounds.

[6] = tested on: follicle dermal papilla cells; assay: Reactive oxygen species (ROS) activity in follicle dermal papilla cells; settings: 5 μg/mL, 24 hr, relative to vehicle control 0.1% v/v DMSO
Protocol: Normalized reactive oxygen species (ROS) activity in follicle dermal papilla cells were analyzed after treatment with 5 μg/mL exemplary compounds relative to vehicle control (0.1% v/v DMSO) after 24 hr. The increase in ROS levels is harmful on cell mhemeostasis, structures, and functions and results in oxidative stress.

| SMILES | Percent Increase Proliferation of hFDPCs (%) [4] | further results |
| --- | --- | --- |
| CCC(=O)N1CCN(c2nnc(-c3ccc(C)cc3)c3ccccc23)CC1 [II-4, 1-Propanone, 1-[4-[4-(4-methylphenyl)-1-phthalazinyl]-1-piperazinyl]-] |  | normalized caspase 3/7 activity [1]: did not exhibit any caspase activation; genotoxic effects, normalized β-galactosidase activity [2]: did not exhibit any genotoxic effects; micronuclei formation / genotoxic effect in TK.6 cells [3]: do not promote any micronuclei formation |
| C=CCc1cc(/C=C2\C(=O)NC(=S)N(C)C2=O)cc(OC)c1OCC [Compound I-10, 4,6(1H,5H)-Pyrimidinedione, 5-[[4-ethoxy-3-methoxy-5-(2-propen-1-yl)phenyl]methylene]dihydro-1-methyl-2-thioxo-] | A (A represents less than 20% of increased proliferation of hFDPCs) |  |
| COC(=O)c1c(S(C)(=O)=O)[nH]c(-c2ccccc2)nc1=O [VII-1] |  | normalized caspase 3/7 activity [1]: did not exhibit any caspase activation; sensitizing potential, normalized ARE-luciferase activity [5]: exhibited sensitizing potential; genotoxic effects, normalized β-galactosidase activity [2]: did not exhibit any genotoxic effects; micronuclei formation / genotoxic effect in TK.6 cells [3]: do not promote any micronuclei formation |
| COc1ccc(CCCc2nc3ccccc3[nH]2)cc1 [VII-14, 1H-Benzimidazole, 2-[3-(4-methoxyphenyl)propyl]-] |  | normalized caspase 3/7 activity [1]: did not exhibit any caspase activation; micronuclei formation / genotoxic effect in TK.6 cells [3]: do not promote any micronuclei formation |
| C=CCc1cc(/C=C2\C(=O)NC(=O)N(C)C2=O)cc(OC)c1O [Compound I-16, 2,4,6(1H,3H,5H)-Pyrimidinetrione, 5-[[4-hydroxy-3-methoxy-5-(2-propen-1-yl)phenyl]methylene]-1-methyl-] | A (A represents less than 20% of increased proliferation of hFDPCs) |  |
| CCOCCc1nnc(NC(=O)c2cc(-c3ccccc3)nc3ccccc23)s1 [III-4, 4-Quinolinecarboxamide, N-[5-(2-ethoxyethyl)-1,3,4-thiadiazol-2-yl]-2-phenyl-] | B (B represents 20-40%) |  |
| CCC(C)Cc1c(C)sc2[nH]c(SCc3cc(=O)oc4cc(O)ccc34)nc(=O)c12 (stereo not shown) [IV-4, Thieno[2,3-d]pyrimidin-4(1H)-one, 2-[[(7-hydroxy-2-oxo-2H-1-benzopyran-4-yl)methyl]thio]-6-methyl-5-(2-methylbutyl)-] | A (A represents less than 20% of increased proliferation of hFDPCs) |  |
| CN1C(=O)NC(=O)/C(=C\c2cccc(OCC(=O)O)c2)C1=O [Compound I-14, Acetic acid, 2-[3-[(tetrahydro-1-methyl-2,4,6-trioxo-5(2H)-pyrimidinylidene)methyl]phenoxy]-] | A (A represents less than 20% of increased proliferation of hFDPCs) |  |
| C=CCc1cc(/C=C2\C(=O)NC(=O)N(c3ccc(C(C)C)cc3)C2=O)cc(OC)c1O [Compound I-1, 2,4,6(1H,3H,5H)-Pyrimidinetrione, 5-[[4-hydroxy-3-methoxy-5-(2-propen-1-yl)phenyl]methylene]-1-[4-(1-methylethyl)phenyl]-] | A (A represents less than 20% of increased proliferation of hFDPCs) |  |
| C=CCc1cc(/C=C2\C(=O)NC(=S)N(c3ccccc3OC)C2=O)cc(OCC)c1O [Compound I-18, 4,6(1H,5H)-Pyrimidinedione, 5-[[3-ethoxy-4-hydroxy-5-(2-propen-1-yl)phenyl]methylene]dihydro-1-(2-methoxyphenyl)-2-thioxo-] | B (B represents 20-40%) | normalized ROS level [6]: higher than other compounds |
| COc1cc([N+](=O)[O-])cc(/C=C2\C(=O)NC(=O)N(C)C2=O)c1O [Compound I-15, 2,4,6(1H,3H,5H)-Pyrimidinetrione, 5-[(2-hydroxy-3-methoxy-5-nitrophenyl)methylene]-1-methyl-] | B (B represents 20-40%) |  |
| C=CCc1cc(/C=C2\C(=O)NC(=S)N(c3ccc(OC)cc3)C2=O)cc(OC)c1O [Compound I-17, 4,6(1H,5H)-Pyrimidinedione, dihydro-5-[[4-hydroxy-3-methoxy-5-(2-propen-1-yl)phenyl]methylene]-1-(4-methoxyphenyl)-2-thioxo-] | C (C represents larger than 40% of increased proliferation of hFDPCs) | normalized caspase 3/7 activity [1]: significant caspase-3/7 activation at the highest concentration; concentration eliciting genotoxicity in TK.6 micronuclei assay ([3]; 24 hr): > 3125 ng/mL |
| C=CCOc1ccc(/C=C2/C(=O)NC(=O)N(CC=C)C2=O)cc1OC [Compound I-7, 2,4,6(1H,3H,5H)-Pyrimidinetrione, 5-[[3-methoxy-4-(2-propen-1-yloxy)phenyl]methylene]-1-(2-propen-1-yl)-] | A (A represents less than 20% of increased proliferation of hFDPCs) |  |
| Cc1cccc(Cn2cnc(NC(=O)c3cc(-c4cccnc4)nc4ccc(C)cc34)n2)c1 [III-2, 4-Quinolinecarboxamide, 6-methyl-N-[1-[(3-methylphenyl)methyl]-1H-1,2,4-triazol-3-yl]-2-(3-pyridinyl)-] | A (A represents less than 20% of increased proliferation of hFDPCs) |  |
| C=CCc1cc(C=C2C(=O)NC(=S)NC2=O)cc(OC)c1O [Compound I-9, 4,6(1H,5H)-Pyrimidinedione, dihydro-5-[[4-hydroxy-3-methoxy-5-(2-propen-1-yl)phenyl]methylene]-2-thioxo-] | B (B represents 20-40%) |  |
| COc1ccc(/C=C2\C(=O)NC(=O)N(C)C2=O)c(OC)c1 [Compound I-11, 2,4,6(1H,3H,5H)-Pyrimidinetrione, 5-[(2,4-dimethoxyphenyl)methylene]-1-methyl-, (5E)-] | A (A represents less than 20% of increased proliferation of hFDPCs) |  |
